Read-outs that look alike come from different tables or passages of the source.
Key:
Type in all cases: cell-based
[1] = tested on: Phaeosphaeria nodorum; test: Plate medium fungicidal assay, wheat Septoria nodorum blotch P.n (Experimental Example 5); settings: for inhibition at 5 µg/mL / inhibition at 50 µg/mL: Parastagonospora nodorum
Experimental: (§1) In this Experimental Example, the fungicidal effects of the inventive compounds on various phytopathogenic fungi for plants and hazardous microorganism for industrial materials were examined by the methods described below. Each inventive compound was dissolved in 2 ml of dimethyl sulfoxide. 0.6 ml of this solution was added to 60 nil of a PDA medium (potato dextrose agar medium) at about 60 degrees C., which was mixed thoroughly in a 100-ml conical flask, and poured into a dish, where it was solidified, thereby obtaining a plate medium containing the inventive compound at 50 mg/L and 5 mg/L. On the other hand, a subject microorganism previously cultured on a plate medium was cut out using a cork borer whose diameter was 4 mm, and inoculated to the test compound-containing plate medium described above. […] The growth degree of the microorganism on the test compound-containing plate medium thus observed was compared with the growth degree of the microorganism in the untreated group, and % mycelial growth inhibition was calculated by the following equation. R=100(dc−dt)/dc wherein R=% mycelial extension inhibition, dc=flora diameter in untreated plate, dt=flora diameter in treated plate. The results obtained as described above were evaluated as one of the 5 grades according to the following criteria. […] Wheat Septoria nodorum blotch (Phaeosphaeria nodorum) P.n

[2] = tested on: Pseudocercoporella herpotrichoides; test: Plate medium fungicidal assay, wheat eye spot P.h (Experimental Example 5)
Experimental: as §1, with “eye spot (Pseudocercoporella herpotrichoides) P.h” for “Septoria nodorum blotch (Phaeosphaeria nodorum) P.n”

[3] = tested on: Fusarium graminearum; test: microbe, parasite or virus in culture; settings: for inhibition at 5 µg/mL / inhibition at 50 µg/mL: Fusarium graminearum
[4] = tested on: Alternaria alternata; test: Plate medium fungicidal assay, Alternaria blotch A.m (Experimental Example 5); settings: for inhibition at 5 µg/mL / inhibition at 50 µg/mL: Alternaria alternata
Experimental: as §1, with “Alternaria” for “Wheat Septoria nodorum”, “(Alternaria alternata) A.m” for “(Phaeosphaeria nodorum) P.n”

[5] = tested on: Fusarium oxysporum; test: Plate medium fungicidal assay, cucumber fusarium wilt F.c (Experimental Example 5); settings: for inhibition at 5 µg/mL / inhibition at 50 µg/mL: Fusarium oxysporum
Experimental: as §1, with “Cucumber fusarium wilt (Fusarium oxysporum) F.c” for “Wheat Septoria nodorum blotch (Phaeosphaeria nodorum) P.n”

[6] = tested on: Trichoderma sp.; test: Plate medium assay, industrial material deteriorating microorganism, Trichoderma (Experimental Example 5); settings: treatment at 50 mg/l, PDA plate medium, read-out: growth inhibition grade
Experimental: (§2) In this Experimental Example, the fungicidal effects of the inventive compounds on various phytopathogenic fungi for plants and hazardous microorganism for industrial materials were examined by the methods described below. Each inventive compound was dissolved in 2 ml of dimethyl sulfoxide. 0.6 ml of this solution was added to 60 nil of a PDA medium (potato dextrose agar medium) at about 60 degrees C., which was mixed thoroughly in a 100-ml conical flask, and poured into a dish, where it was solidified, thereby obtaining a plate medium containing the inventive compound at 50 mg/L and 5 mg/L. On the other hand, a subject microorganism previously cultured on a plate medium was cut out using a cork borer whose diameter was 4 mm, and inoculated to the test compound-containing plate medium described above. […] The growth degree of the microorganism on the test compound-containing plate medium thus observed was compared with the growth degree of the microorganism in the untreated group, and % mycelial growth inhibition was calculated by the following equation. R=100(dc-dt)/dc wherein R=% mycelial extension inhibition, dc=flora diameter in untreated plate, dt=flora diameter in treated plate. The results obtained as described above were evaluated as one of the 5 grades according to the following criteria.

[7] = tested on: Tyromyces palustris; test: Plate medium assay, wood denaturing microorganism Oouzuratake (Experimental Example 5); settings: treatment at 50 mg/l, PDA plate medium; read-out: growth inhibition grade
Experimental: as §2

[8] = read-out: growth inhibition grade F.g
[9] = read-out: Growth inhibition grade, F.g
[10] = plate medium containing compound at 5 mg/L
[11] = plate medium containing compound at 50 mg/L

| SMILES | inhibition at 50 µg/mL [6] | inhibition at 50 µg/mL [7] | Growth inhibition grade, P.n ([1]; plate medium, 5 mg/L) | Growth inhibition grade, P.n ([1]; plate medium, 50 mg/L) | Growth inhibition grade, P.h ([2]; plate medium, 5 mg/L) | Growth inhibition grade, P.h ([2]; plate medium, 50 mg/L) | Growth inhibition grade, F.g ([3]; plate medium, 5 mg/L) | Growth inhibition grade, F.g ([3]; plate medium, 50 mg/L) | Growth inhibition grade, A.m ([4]; plate medium, 5 mg/L) | Growth inhibition grade, A.m ([4]; plate medium, 50 mg/L) | Growth inhibition grade, F.c ([5]; plate medium, 5 mg/L) | Growth inhibition grade, F.c ([5]; plate medium, 50 mg/L) | other results |
| --- | --- | --- | --- | --- | --- | --- | --- | --- | --- | --- | --- | --- | --- |
| C[C@]1(CBr)CC[C@@H](Cc2ccc(F)cc2)[C@]1(O)Cn1cncn1 (racemic) [Compound I-601, (1RS,2SR,5SR)-2-bromomethyl-5-(4-fluorobenzyl)-2-methyl-1-(1H-1,2,4-triazol-1-ylmethyl)cyclopentanol] | 60 to 80% | 60 to 80% | – | – | – | – | – | – | – | – | – | – | inhibition at 5 µg/mL ([1]; plate medium, 5 mg/L, read-out: growth inhibition grade P.n): 60 to 80%; inhibition at 50 µg/mL ([1]; plate medium, 50 mg/L, read-out: growth inhibition grade P.n): > 80%; inhibition at 5 µg/mL ([2]; plate medium, 5 mg/L, read-out: growth inhibition grade P.h): 60 to 80%; inhibition at 50 µg/mL ([2]; plate medium, 50 mg/L, read-out: growth inhibition grade P.h): > 80%; inhibition at 5 µg/mL [3, 8]: > 80%; inhibition at 50 µg/mL [3, 8]: > 80%; inhibition at 5 µg/mL ([4]; plate medium, 5 mg/L, read-out: growth inhibition grade A.m): 60 to 80%; inhibition at 50 µg/mL ([4]; plate medium, 50 mg/L, read-out: growth inhibition grade A.m): > 80%; inhibition at 5 µg/mL ([5]; plate medium, 5 mg/L, read-out: growth inhibition grade F.c): > 80%; inhibition at 50 µg/mL ([5]; plate medium, 50 mg/L, read-out: growth inhibition grade F.c): > 80% |
| C[C@]1(CBr)CC[C@@H](Cc2ccc(Cl)cc2)[C@]1(O)Cn1cncn1 (racemic) [Compound I-25, (1RS,2SR,5SR)-2-bromomethyl-5-(4-chlorobenzyl)-2-methyl-1-(1H-1,2,4-triazol-1-ylmethyl)cyclopentanol] | 60 to 80% | 60 to 80% | – | – | – | – | – | – | – | – | – | – | inhibition at 5 µg/mL ([1]; plate medium containing compound at 5 mg/L, read-out: Growth inhibition grade, P.n): 60 to 80%; inhibition at 50 µg/mL ([1]; plate medium containing compound at 50 mg/L, read-out: Growth inhibition grade, P.n): > 80%; inhibition at 5 µg/mL ([2]; plate medium containing compound at 5 mg/L, read-out: Growth inhibition grade, P.h): 40 to 60%; inhibition at 50 µg/mL ([2]; plate medium containing compound at 50 mg/L, read-out: Growth inhibition grade, P.h): > 80%; inhibition at 5 µg/mL [3, 9]: > 80%; inhibition at 50 µg/mL [3, 9]: > 80%; inhibition at 5 µg/mL ([4]; plate medium containing compound at 5 mg/L, read-out: Growth inhibition grade, A.m): 60 to 80%; inhibition at 50 µg/mL ([4]; plate medium containing compound at 50 mg/L, read-out: Growth inhibition grade, A.m): > 80%; inhibition at 5 µg/mL ([5]; plate medium containing compound at 5 mg/L, read-out: Growth inhibition grade, F.c): > 80%; inhibition at 50 µg/mL ([5]; plate medium containing compound at 50 mg/L, read-out: Growth inhibition grade, F.c): > 80% |
| O[C@]1(Cn2cncn2)[C@H](Cc2ccc(Cl)cc2)CCC1(CCl)CCl (relative stereo) [Compound I-203, cis-5-(4-chlorobenzyl)-2,2-bis(chloromethyl)-1-(1H-1,2,4-triazol-1-yl)methylcyclopentanol] | – | – | 5 (% Mycerial growth inhibition of 80% or higher) | 5 (% Mycerial growth inhibition of 80% or higher) | 5 (% Mycerial growth inhibition of 80% or higher) | 5 (% Mycerial growth inhibition of 80% or higher) | 5 (% Mycerial growth inhibition of 80% or higher) | 5 (% Mycerial growth inhibition of 80% or higher) | 5 (% Mycerial growth inhibition of 80% or higher) | 5 (% Mycerial growth inhibition of 80% or higher) | 5 (% Mycerial growth inhibition of 80% or higher) | 5 (% Mycerial growth inhibition of 80% or higher) | – |
| C[C@]1(CCl)CC[C@H](Cc2cccc(Cl)c2)[C@]1(O)Cn1cncn1 (relative stereo) [Compound I-374] | – | – | 5 (% Mycerial growth inhibition of 80% or higher) | 5 (% Mycerial growth inhibition of 80% or higher) | 5 (% Mycerial growth inhibition of 80% or higher) | 5 (% Mycerial growth inhibition of 80% or higher) | 5 (% Mycerial growth inhibition of 80% or higher) | 5 (% Mycerial growth inhibition of 80% or higher) | 4 (% Mycerial growth inhibition of less than 80 to 60% or higher) | 5 (% Mycerial growth inhibition of 80% or higher) | 5 (% Mycerial growth inhibition of 80% or higher) | 5 (% Mycerial growth inhibition of 80% or higher) | – |
| C[C@@]1(CCl)CC[C@@H](Cc2cccc(Cl)c2)[C@]1(O)Cn1cncn1 (relative stereo) [Compound I-174] | – | – | 5 (% Mycerial growth inhibition of 80% or higher) | 5 (% Mycerial growth inhibition of 80% or higher) | 5 (% Mycerial growth inhibition of 80% or higher) | 5 (% Mycerial growth inhibition of 80% or higher) | 5 (% Mycerial growth inhibition of 80% or higher) | 5 (% Mycerial growth inhibition of 80% or higher) | 5 (% Mycerial growth inhibition of 80% or higher) | 5 (% Mycerial growth inhibition of 80% or higher) | 5 (% Mycerial growth inhibition of 80% or higher) | 5 (% Mycerial growth inhibition of 80% or higher) | – |
| C[C@]1(CCl)CC[C@@H](Cc2ccc(OC(F)(F)F)cc2)[C@]1(O)Cn1cncn1 (relative stereo) [Compound I-79] | – | – | – | – | – | – | – | – | – | – | – | – | Growth inhibition grade, P.n [1, 10]: 5 (% Mycerial growth inhibition of 80% or higher); Growth inhibition grade, P.n [1, 11]: 5 (% Mycerial growth inhibition of 80% or higher); Growth inhibition grade, P.h [2, 10]: 5 (% Mycerial growth inhibition of 80% or higher); Growth inhibition grade, P.h [2, 11]: 5 (% Mycerial growth inhibition of 80% or higher); Growth inhibition grade, F.g [3, 10]: 5 (% Mycerial growth inhibition of 80% or higher); Growth inhibition grade, F.g [3, 11]: 5 (% Mycerial growth inhibition of 80% or higher); Growth inhibition grade, A.m [4, 10]: 5 (% Mycerial growth inhibition of 80% or higher); Growth inhibition grade, A.m [4, 11]: 5 (% Mycerial growth inhibition of 80% or higher); Growth inhibition grade, F.c [5, 10]: 5 (% Mycerial growth inhibition of 80% or higher); Growth inhibition grade, F.c [5, 11]: 5 (% Mycerial growth inhibition of 80% or higher) |

Source: US9145351B2, “Azole derivatives, methods for producing the same, intermediate thereof, agro-horticultural agents” (KUREHA CORPORATION, priority 2009, dated 2015)
